The values that follow come from the supplement of paper PMC10307832.

Assay in all cases: relative viability (nuclei count vs DMSO), 5 days (fraction); higher = more cells survive
Compound in the experiment “DM3189 + Linsitinib”: C1CN(CCN1)C2=CC=C(C=C2)C3=CN4C(=C(C=N4)C5=CC=NC6=CC=CC=C56)N=C3 [DM3189] + C[C@]1(O)C[C@@H](c2nc(-c3ccc4ccc(-c5ccccc5)nc4c3)c3c(N)nccn32)C1 [Linsitinib] (partner 1 µM)
The method in brief: (§1)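 Nuclei were stained with Hoechst during a one-step fixation (final 0.05% Triton X-100, 1% formaldehyde, 1 ug/ml Hoechst) carried out 5 days after dosing, then counted on 4× images. The cells, lung cancer lines in 1536-well plates, had been dosed by pin tool the day after seeding with one drug alone or a fixed anchor-drug dose plus five library-drug doses (not always all listed) in √10 steps. Relative viability is the nuclei count in treated wells divided by that in vehicle wells, and each value is the median of duplicate plates.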

Compound in the experiment “DM3189 + Phenformin”: C1CN(CCN1)C2=CC=C(C=C2)C3=CN4C(=C(C=N4)C5=CC=NC6=CC=CC=C56)N=C3 [DM3189] + N=C(N)NC(=N)NCCc1ccccc1 [Phenformin] (partner 250 µM)
The method in brief:
as §1

Compound in the experiment “DM3189 + AZD7762”: C1CN(CCN1)C2=CC=C(C=C2)C3=CN4C(=C(C=N4)C5=CC=NC6=CC=CC=C56)N=C3 [DM3189] + NC(=O)Nc1cc(-c2cccc(F)c2)sc1C(=O)N[C@H]1CCCNC1 [AZD7762] (partner 0.2 µM)
The method in brief: as §1

Compound in the experiment “DM3189 + Bortezomib”: C1CN(CCN1)C2=CC=C(C=C2)C3=CN4C(=C(C=N4)C5=CC=NC6=CC=CC=C56)N=C3 [DM3189] + CC(C)C[C@H](NC(=O)[C@H](Cc1ccccc1)NC(=O)c1cnccn1)B(O)O [Bortezomib] (partner 0.002 µM)
The method in brief:
as §1

Compound in the experiment “DM3189 + Decitabine”: C1CN(CCN1)C2=CC=C(C=C2)C3=CN4C(=C(C=N4)C5=CC=NC6=CC=CC=C56)N=C3 [DM3189] + Nc1ncn([C@H]2C[C@H](O)[C@@H](CO)O2)c(=O)n1 [Decitabine] (partner 2 µM)
Put shortly: as §1

In the case of NCI-H3122, the relative viability in the experiment with DM3189 + Linsitinib (first compound 0.08 µM) worked out at 0.939; in the experiment with DM3189 + Linsitinib (first compound 0.253 µM), 0.907; in the experiment with DM3189 + Linsitinib (first compound 0.8 µM), 0.876; with DM3189 + Linsitinib (first compound 2.53 µM), 0.933; with DM3189 + Phenformin (first compound 0.08 µM), 0.405; with DM3189 + Phenformin (first compound 0.253 µM) it was 0.334. Further, the relative viability came to 0.355 with DM3189 + Phenformin (first compound 0.8 µM); 0.333 with DM3189 + Phenformin (first compound 2.53 µM); 0.978 with DM3189 + AZD7762 (first compound 0.08 µM); 0.964 in the experiment with DM3189 + AZD7762 (first compound 0.253 µM); 0.912 with DM3189 + AZD7762 (first compound 0.8 µM); 0.816 in the experiment with DM3189 + AZD7762 (first compound 2.53 µM). Also, the relative viability with DM3189 + Bortezomib (first compound 0.08 µM) stood at 0.979; with DM3189 + Bortezomib (first compound 0.253 µM) it was 0.983; with DM3189 + Bortezomib (first compound 0.8 µM), 0.973; in the experiment with DM3189 + Bortezomib (first compound 2.53 µM), 0.982; in the experiment with DM3189 + Decitabine (first compound 0.08 µM), 0.362; in the experiment with DM3189 + Decitabine (first compound 0.253 µM), 0.353. The relative viability in the experiment with DM3189 + Decitabine (first compound 0.8 µM) is 0.372; with DM3189 + Decitabine (first compound 2.53 µM), 0.367.
For the cell line PC-3 [JPC-3], the relative viability was determined as 0.975 in the experiment with DM3189 + Linsitinib (first compound 0.08 µM); 0.91 with DM3189 + Linsitinib (first compound 0.253 µM); 0.972 in the experiment with DM3189 + Linsitinib (first compound 0.8 µM); 1.06 in the experiment with DM3189 + Linsitinib (first compound 2.53 µM); 0.475 with DM3189 + Phenformin (first compound 0.08 µM); 0.467 in the experiment with DM3189 + Phenformin (first compound 0.253 µM). Further, the relative viability with DM3189 + Phenformin (first compound 0.8 µM) turned out to be 0.471; with DM3189 + Phenformin (first compound 2.53 µM) it was 0.467; in the experiment with DM3189 + AZD7762 (first compound 0.08 µM), 0.957; with DM3189 + AZD7762 (first compound 0.253 µM) it was 0.884; in the experiment with DM3189 + AZD7762 (first compound 0.8 µM), 0.814; with DM3189 + AZD7762 (first compound 2.53 µM) it was 0.791. Further, the relative viability was 1 with DM3189 + Bortezomib (first compound 0.08 µM); 0.869 with DM3189 + Bortezomib (first compound 0.253 µM); 0.849 with DM3189 + Bortezomib (first compound 0.8 µM); 0.785 in the experiment with DM3189 + Bortezomib (first compound 2.53 µM); 0.848 in the experiment with DM3189 + Decitabine (first compound 0.08 µM); 0.802 with DM3189 + Decitabine (first compound 0.253 µM). Further, the relative viability with DM3189 + Decitabine (first compound 0.8 µM) and with DM3189 + Decitabine (first compound 2.53 µM) was 0.797 each time.
With PC-14, the relative viability came to 1.03 in the experiment with DM3189 + Linsitinib (first compound 0.08 µM); 0.953 with DM3189 + Linsitinib (first compound 0.253 µM); 0.903 with DM3189 + Linsitinib (first compound 0.8 µM); 0.879 with DM3189 + Linsitinib (first compound 2.53 µM); 0.817 with DM3189 + Phenformin (first compound 0.08 µM); 0.527 with DM3189 + Phenformin (first compound 0.253 µM). Besides, the relative viability with DM3189 + Phenformin (first compound 0.8 µM) was 0.435; in the experiment with DM3189 + Phenformin (first compound 2.53 µM), 0.487; in the experiment with DM3189 + AZD7762 (first compound 0.08 µM) it was 0.569; in the experiment with DM3189 + AZD7762 (first compound 0.253 µM), 0.249; with DM3189 + AZD7762 (first compound 0.8 µM) it was 0.263; with DM3189 + AZD7762 (first compound 2.53 µM) it was 0.26. Also, the relative viability in the experiment with DM3189 + Bortezomib (first compound 0.08 µM) was 0.832; with DM3189 + Bortezomib (first compound 0.253 µM), 0.885; with DM3189 + Bortezomib (first compound 0.8 µM), 0.832; with DM3189 + Bortezomib (first compound 2.53 µM), 0.812; with DM3189 + Decitabine (first compound 0.08 µM), 0.303; with DM3189 + Decitabine (first compound 0.253 µM), 0.237. Further, the relative viability with DM3189 + Decitabine (first compound 0.8 µM) was determined as 0.21; with DM3189 + Decitabine (first compound 2.53 µM) it was 0.253.
For RERF-LC-KJ, the relative viability was determined as 0.932 in the experiment with DM3189 + Linsitinib (first compound 0.08 µM); 0.879 with DM3189 + Linsitinib (first compound 0.253 µM); 0.861 with DM3189 + Linsitinib (first compound 0.8 µM); 0.978 in the experiment with DM3189 + Linsitinib (first compound 2.53 µM); 0.451 in the experiment with DM3189 + Phenformin (first compound 0.08 µM); 0.4 in the experiment with DM3189 + Phenformin (first compound 0.253 µM). In addition, the relative viability in the experiment with DM3189 + Phenformin (first compound 0.8 µM) was 0.407; in the experiment with DM3189 + Phenformin (first compound 2.53 µM), 0.426; in the experiment with DM3189 + AZD7762 (first compound 0.08 µM), 1.51; in the experiment with DM3189 + AZD7762 (first compound 0.253 µM), 1.11; with DM3189 + AZD7762 (first compound 0.8 µM) it was 1; with DM3189 + AZD7762 (first compound 2.53 µM), 0.964. Besides, the relative viability is 1.61 with DM3189 + Bortezomib (first compound 0.08 µM); 1.21 with DM3189 + Bortezomib (first compound 0.253 µM); 1.15 in the experiment with DM3189 + Bortezomib (first compound 0.8 µM); 1.26 in the experiment with DM3189 + Bortezomib (first compound 2.53 µM); 0.754 in the experiment with DM3189 + Decitabine (first compound 0.08 µM); 0.615 with DM3189 + Decitabine (first compound 0.253 µM). Moreover, the relative viability with DM3189 + Decitabine (first compound 0.8 µM) amounted to 0.757; with DM3189 + Decitabine (first compound 2.53 µM), 0.618.
